Like-named read-outs stand apart in the source and are kept apart here. Numbered stars: 1 amine (or outer) side, 2 acyl side, 3 side chain; on linkers, the order of the positions; unused ones are H or OH. Bridge positions count the residues as written; N and C are the ends. Square brackets hold non-standard residues; d marks the D form. Peptide text beside a SMILES is read from it. * marks the point of attachment. TtdsdLys(DOTA)NH2 = NC(=O)[C@@H](CCCCNC(=O)CN1CCN(CC(=O)O)CCN(CC(=O)O)CCN(CC(=O)O)CC1)NC(=O)CCC(=O)NCCCOCCOCCOCCCN*; DOTA = O=C(O)CN1CCN(CC(=O)O)CCN(CC(=O)*)CCN(CC(=O)O)CC1; Phe(4-Cl) = N[C@@H](Cc1ccc(Cl)cc1)C(=O)O; Phe(4-F) = N[C@@H](Cc1ccc(F)cc1)C(=O)O; 2Nal = N[C@@H](Cc1ccc2ccccc2c1)C(=O)O; Arg(Me) = CNC(=N)NCCC[C@H](N)C(=O)O; NMeR = CN[C@@H](CCCNC(=N)N)C(=O)O; X1 = O=C(CC1CCN([*:1])CC1)[*:2]; Lys(Me) = CNCCCC[C@H](N)C(=O)O; Tle = CC(C)(C)[C@H](N)C(=O)O; 4Amb = NCc1ccc(C(=O)O)cc1; Isovaleryl = CC(C)CC(=O)*; Hexanoyl = CCCCCC(=O)*; NHCH2CH2NHMe = CNCCN*; Aib = CC(C)(N)C(=O)O; X8 = O=C(CC1CCNCC1)*; CH2 = C([*:1])[*:2]
Tests used:
[1] = target: T1, Fc-fusion protein of human PSMA (hPSMA-Fc) (Homo sapiens, UniProt Q04609); assay: Surface plasmon resonance assay (Biacore T200, single cycle kinetic); format: binding; conditions: read-out: pKD CAT (converted)
T1 construct: purchased Acro Biosystems PSA-H5264
In short: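 KD, expressed as pKD, came from 1:1 Langmuir fits of reference- and buffer-blank-subtracted SPR data. The runs were single-cycle kinetics at 25° C in HBST/0.1% DMSO over human PSMA-Fc, captured to ~1000 RU on a peptide-coated CM5 surface and regenerated with 10 mM glycine pH 1.5.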

[2] = target: T2, PSMA-expressing C4-2 cells (Homo sapiens, UniProt Q04609); assay: FACS binding assay (competition with 50 nM PSM-0183); conditions: read-out: pIC50 [C4-2] CAT (converted)
T2 construct: PSMA-expressing C4-2 cells (ATCC, Cat. No. CRL-3314) were cultured in RPMI-1640; host or cells: C4-2 cells
In short: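 Competition format: fluorescent tracer PSM-0183 (50 nM) displaced from PSMA on C4-2 cells by a test compound titration over 1 h at 4 °C. Bound tracer was quantified as flow-cytometric AF488 median fluorescence after washing. Four-parameter logistic fits of MFI data gave IC50 and pIC50.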

[3] = PSMA SPR assay, hPSMA-Fc, 25° C., pKD category
[4] = FACS binding, PSMA-expressing C4-2 cells, pIC50 category
[5] = pKD category for PSMA SPR activity assay, hPSMA-Fc, 25° C.
[6] = pIC50 category of FACS binding, C4-2 cells
[7] = FACS binding, C4-2 cells, category

T2 sequence (Q04609 whole entry): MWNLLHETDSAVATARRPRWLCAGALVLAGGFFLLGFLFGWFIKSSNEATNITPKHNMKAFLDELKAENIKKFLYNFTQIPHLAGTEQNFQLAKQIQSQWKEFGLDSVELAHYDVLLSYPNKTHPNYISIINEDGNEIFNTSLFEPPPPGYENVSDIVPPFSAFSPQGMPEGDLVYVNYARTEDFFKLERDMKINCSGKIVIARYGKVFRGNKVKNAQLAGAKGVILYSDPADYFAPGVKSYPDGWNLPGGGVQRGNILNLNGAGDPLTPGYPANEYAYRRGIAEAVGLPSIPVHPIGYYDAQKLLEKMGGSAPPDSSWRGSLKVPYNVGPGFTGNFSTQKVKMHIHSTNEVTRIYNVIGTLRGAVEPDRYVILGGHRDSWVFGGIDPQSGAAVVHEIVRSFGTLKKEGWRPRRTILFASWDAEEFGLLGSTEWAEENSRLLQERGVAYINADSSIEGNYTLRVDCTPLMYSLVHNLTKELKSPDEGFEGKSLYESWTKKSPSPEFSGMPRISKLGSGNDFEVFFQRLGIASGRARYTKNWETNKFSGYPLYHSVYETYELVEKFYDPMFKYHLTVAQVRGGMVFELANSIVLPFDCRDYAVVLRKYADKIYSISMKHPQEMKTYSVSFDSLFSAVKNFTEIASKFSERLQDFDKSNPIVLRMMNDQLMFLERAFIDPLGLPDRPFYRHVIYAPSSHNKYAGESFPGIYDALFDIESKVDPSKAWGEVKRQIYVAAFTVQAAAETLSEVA
T1 sequence (Q04609 44-750 limits assumed): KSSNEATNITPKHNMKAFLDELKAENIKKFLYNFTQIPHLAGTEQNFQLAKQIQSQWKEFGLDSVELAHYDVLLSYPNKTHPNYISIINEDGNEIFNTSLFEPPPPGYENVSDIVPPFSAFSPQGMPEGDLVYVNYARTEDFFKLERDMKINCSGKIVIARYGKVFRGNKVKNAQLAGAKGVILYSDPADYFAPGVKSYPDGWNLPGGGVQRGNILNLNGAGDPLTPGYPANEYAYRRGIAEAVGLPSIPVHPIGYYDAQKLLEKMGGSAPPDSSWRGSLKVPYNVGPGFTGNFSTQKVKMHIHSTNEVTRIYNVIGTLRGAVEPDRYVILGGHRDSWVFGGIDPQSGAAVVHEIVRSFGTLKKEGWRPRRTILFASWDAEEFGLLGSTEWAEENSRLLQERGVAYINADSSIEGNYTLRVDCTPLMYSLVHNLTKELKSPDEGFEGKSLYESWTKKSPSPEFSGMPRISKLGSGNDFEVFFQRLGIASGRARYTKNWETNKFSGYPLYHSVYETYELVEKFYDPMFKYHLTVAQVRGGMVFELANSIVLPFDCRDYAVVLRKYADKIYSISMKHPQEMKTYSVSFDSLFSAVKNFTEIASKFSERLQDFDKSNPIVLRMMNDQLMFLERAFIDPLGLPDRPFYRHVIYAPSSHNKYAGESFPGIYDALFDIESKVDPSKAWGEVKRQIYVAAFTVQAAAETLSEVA

`C[C@@H](O)[C@H](NC(=O)[C@@H](NC(=O)[C@@H]1CSSC[C@H](NC(=O)[C@H](Cc2ccc(Cl)cc2)NC(=O)[C@H](CCC(=O)O)NC(=O)[C@@H](NC(=O)CC2CCN(C(=O)CN3CCN(CC(=O)O)CCN(CC(=O)O)CCN(CC(=O)O)CC3)CC2)[C@@H](C)O)C(=O)N[C@@H](CCCCN)C(=O)N[C@@H](CCCNC(=N)N)C(=O)NC(C)(C)C(=O)N[C@@H](CC(N)=O)C(=O)N1)C(C)(C)C)C(N)=O` [PSM-0276, DOTA-Cmp-Thr-Glu-Pcf-[Cys-Lys-Arg-Aib-Asn-Cys]-Tle-Thr-NH2] ({DOTA}-[X1]TE[Phe(4-Cl)]CKR[Aib]NC[Tle]T-NH2; disulfide 5-10) was tested, and the Kd [1, 3] was > 501 nM and the IC50 [2, 4] was > 3160 nM.

For `CNCCCC[C@@H]1NC(=O)[C@@H](NC(=O)[C@H](Cc2ccc(F)cc2)NC(=O)C(C)(C)NC(=O)[C@@H](NC(=O)CC2CCN(C(=O)CN3CCN(CC(=O)O)CCN(CC(=O)O)CCN(CC(=O)O)CC3)CC2)[C@@H](C)O)CSSC[C@@H](C(=O)N[C@H](C(N)=O)C(C)(C)C)NC(=O)[C@H](CC(N)=O)NC(=O)C(C)(C)NC(=O)[C@H](CCCNC(=N)NC)NC1=O` [PSM-0395, DOTA-Cmp-Thr-Aib-Pff-[Cys-Lys(Me)-Arg(Me)-Aib-Asn-Cys]-Tle-NH2] ({DOTA}-[X1]T[Aib][Phe(4-F)]C[Lys(Me)][Arg(Me)][Aib]NC[Tle]-NH2; disulfide 5-10), the Kd [1, 5] was < 12.6 nM and the IC50 [2, 6] was < 200 nM.

In the case of `CC(=O)N[C@H](C(=O)NC(C)(C)C(=O)N[C@@H](Cc1ccccc1)C(=O)N[C@H]1CSSC[C@@H](C(=O)N[C@H](C(=O)N[C@H](C(N)=O)[C@@H](C)O)C(C)(C)C)NC(=O)[C@H](CC(N)=O)NC(=O)[C@H](C)NC(=O)[C@H](CCCNC(=N)N)NC(=O)[C@H](CCCCN)NC1=O)[C@@H](C)O` [PSM-0552, Ac-Thr-Aib-Phe-[Cys-Lys-Arg-Ala-Asn-Cys]-Tle-Thr-NH2] (Ac-T[Aib]FCKRANC[Tle]T-NH2; disulfide 4-9), the Kd [1, 5] is reported as < 12.6 nM and the IC50 [2, 6] is reported as < 200 nM.

`CC(=O)N[C@H](C(=O)NC(C)(C)C(=O)N[C@@H](Cc1ccccc1)C(=O)N[C@H]1CSCSC[C@@H](C(=O)N[C@H](C(=O)N[C@H](C(=O)N[C@@H](CC(=O)O)C(N)=O)[C@@H](C)O)C(C)(C)C)NC(=O)[C@H](CC(N)=O)NC(=O)[C@H](C)NC(=O)[C@H](CCCNC(=N)N)NC(=O)[C@H](CCCCN)NC1=O)[C@@H](C)O` [PSM-0567, Ac-Thr-Aib-Phe-[Smc-Lys-Arg-Ala-Asn-Cys]-Tle-Thr-Asp-NH2] (Ac-T[Aib]FCKRANC[Tle]TD-NH2; linker 4-9 via CH2) was tested, and the Kd ([1]; PSMA SPR assay, category) was < 12.6 nM and the IC50 [2, 7] was < 200 nM.

With `C[C@@H](O)[C@H](NC(=O)CC1CCNCC1)C(=O)NC(C)(C)C(=O)N[C@@H](Cc1ccccc1)C(=O)N[C@H]1CSSC[C@@H](C(=O)N[C@H](C(=O)N[C@H](C(=O)N2CCC(CC(=O)N[C@H](CCCCNC(=O)CN3CCN(CC(=O)O)CCN(CC(=O)O)CCN(CC(=O)O)CC3)C(N)=O)CC2)[C@@H](C)O)C(C)(C)C)NC(=O)[C@H](CC(N)=O)NC(=O)C(C)(C)NC(=O)[C@H](CCCNC(=N)N)NC(=O)[C@H](CCCCN)NC1=O` [PSM-0378, H-Cmp-Thr-Aib-Phe-[Cys-Lys-Arg-Aib-Asn-Cys]-Tle-Thr-Cmp-lys(DOTA)-NH2] (X8-T[Aib]FCKR[Aib]NC[Tle]T[X1][dK](DOTA)-NH2; disulfide 4-9) the Kd [1, 5] was < 12.6 nM and the IC50 [2, 6] was < 200 nM.

In the case of `CC(=O)N[C@H](C(=O)NC(C)(C)C(=O)N[C@@H](Cc1ccc2ccccc2c1)C(=O)N[C@H]1CSSC[C@@H](C(=O)N[C@H](C(=O)N[C@H](C(=O)N[C@@H](CC(=O)O)C(N)=O)[C@@H](C)O)C(C)(C)C)NC(=O)[C@H](CC(N)=O)NC(=O)C(C)(C)NC(=O)[C@H](CCCNC(=N)N)NC(=O)[C@H](CCCCN)NC1=O)[C@@H](C)O` [PSM-0517, Ac-Thr-Aib-2Ni-[Cys-Lys-Arg-Aib-Asn-Cys]-Tle-Thr-Asp-NH2] (Ac-T[Aib][2Nal]CKR[Aib]NC[Tle]TD-NH2; disulfide 4-9), the Kd [1, 5] is reported as < 12.6 nM and the IC50 [2, 6] is reported as < 200 nM.

For `CNCCNC(=O)[C@@H](NC(=O)[C@@H]1CSSC[C@H](NC(=O)[C@H](Cc2ccc(Cl)cc2)NC(=O)C(C)(C)NC(=O)[C@@H](NC(=O)CC2CCN(C(=O)CN3CCN(CC(=O)O)CCN(CC(=O)O)CCN(CC(=O)O)CC3)CC2)[C@@H](C)O)C(=O)N[C@@H](CCCCN)C(=O)N[C@@H](CCCNC(=N)N)C(=O)NC(C)(C)C(=O)N[C@@H](CC(N)=O)C(=O)N1)C(C)(C)C` [PSM-0456, DOTA-Cmp-Thr-Aib-Pcf-[Cys-Lys-Arg-Aib-Asn-Cys]-Tle-en(Me)] ({DOTA}-[X1]T[Aib][Phe(4-Cl)]CKR[Aib]NC[Tle]-NHCH2CH2NHMe; disulfide 5-10), the Kd [1, 5] was 12.6 to 126 nM and the IC50 [2, 6] was < 200 nM.

With `CCCCCC(=O)N[C@H](C(=O)NC(C)(C)C(=O)N[C@@H](Cc1ccccc1)C(=O)N[C@H]1CSSC[C@@H](C(=O)N[C@H](C(=O)N[C@H](C(=O)NCCCOCCOCCOCCCNC(=O)CCC(=O)N[C@H](CCCCNC(=O)CN2CCN(CC(=O)O)CCN(CC(=O)O)CCN(CC(=O)O)CC2)C(N)=O)[C@@H](C)O)C(C)(C)C)NC(=O)[C@H](CC(N)=O)NC(=O)C(C)(C)NC(=O)[C@H](CCCNC(=N)N)NC(=O)[C@H](CCCCN)NC1=O)[C@@H](C)O` [PSM-0576, Hex-Thr-Aib-Phe-[Cys-Lys-Arg-Aib-Asn-Cys]-Tle-Thr-Ttds-lys(DOTA)-NH2] (Hexanoyl-T[Aib]FCKR[Aib]NC[Tle]T-{TtdsdLys(DOTA)NH2}; disulfide 4-9) the Kd ([1]; PSMA SPR assay, category) was < 12.6 nM and the IC50 [2, 7] was < 200 nM.

For `CC(=O)N[C@H](C(=O)NC(C)(C)C(=O)N[C@@H](Cc1ccccc1)C(=O)N[C@H]1CSSC[C@@H](C(=O)N[C@H](C(=O)N[C@H](C(=O)NCc2ccc(C(=O)N[C@H](CCCCNC(=O)CN3CCN(CC(=O)O)CCN(CC(=O)O)CCN(CC(=O)O)CC3)C(N)=O)cc2)[C@@H](C)O)C(C)(C)C)NC(=O)[C@H](CC(N)=O)NC(=O)C(C)(C)NC(=O)[C@H](CCCNC(=N)N)NC(=O)[C@H](CCCCN)NC1=O)[C@@H](C)O` [PSM-0522, Ac-Thr-Aib-Phe-[Cys-Lys-Arg-Aib-Asn-Cys]-Tle-Thr-Pamb-lys(DOTA)-NH2] (Ac-T[Aib]FCKR[Aib]NC[Tle]T[4Amb][dK](DOTA)-NH2; disulfide 4-9), the Kd [1, 5] was < 12.6 nM and the IC50 [2, 6] was < 200 nM.

With `CC(C)CC(=O)NC(C)(C)C(=O)N[C@@H](Cc1ccccc1)C(=O)N[C@H]1CSSC[C@@H](C(=O)N[C@H](C(=O)N[C@H](C(N)=O)[C@@H](C)O)C(C)(C)C)NC(=O)[C@H](CC(N)=O)NC(=O)C(C)(C)NC(=O)[C@H](CCCNC(=N)N)NC(=O)[C@H](CCCCN)NC1=O` [PSM-0450, Iva-Aib-Phe-[Cys-Lys-Arg-Aib-Asn-Cys]-Tle-Thr-NH2] (Isovaleryl-[Aib]FCKR[Aib]NC[Tle]T-NH2; disulfide 3-8) the Kd [1, 5] was < 12.6 nM and the IC50 [2, 6] was < 200 nM.

`C[C@@H](O)[C@H](NC(=O)[C@@H](NC(=O)[C@@H]1CSSC[C@H](NC(=O)[C@H](Cc2ccc(Cl)cc2)NC(=O)C(C)(C)NC(=O)[C@@H](NC(=O)CC2CCN(C(=O)CN3CCN(CC(=O)O)CCN(CC(=O)O)CCN(CC(=O)O)CC3)CC2)[C@@H](C)O)C(=O)N[C@@H](CCCCN)C(=O)N(C)[C@@H](CCCNC(=N)N)C(=O)NC(C)(C)C(=O)N[C@@H](CC(N)=O)C(=O)N1)C(C)(C)C)C(N)=O` [PSM-0340, DOTA-Cmp-Thr-Aib-Pcf-[Cys-Lys-Nmr-Aib-Asn-Cys]-Tle-Thr-NH2] ({DOTA}-[X1]T[Aib][Phe(4-Cl)]CK[NMeR][Aib]NC[Tle]T-NH2; disulfide 5-10) was tested, and the Kd [1, 3] was < 12.6 nM and the IC50 [2, 4] was 200 to 1260 nM.

— patent US20260083865A1, “PROSTATE SPECIFIC MEMBRANE ANTIGEN (PSMA) LIGANDS AND USE THEREOF” (priority 2022, published 2026)
